Experimental data taken from ChEMBL document CHEMBL5442175, “EUbOPEN Chemogenomics Library - PDSP Secondary Binding” (2024).
Structures can show the parent of a compound that is named as a salt.

Legend:
[1] = biological target: Sigma non-opioid intracellular receptor 1 (Homo sapiens, UniProt Q99720); experiment: (§1) PDSP Secondary Binding target: SIGMAR1 - Compounds are tested at 10 uM concentration, plate are incubated at room temperature in the dark for 90 minutes. Reaction are stopped by vacuum filtration onto 0.3% polyethyleneimine soaked filter mats using Filtermate harvester. Scintillation cocktail is then melted onto microwave-dried filters on a hot plate and the radio activity is counted in Microbia counter.
[2] = biological target: 5-hydroxytryptamine receptor 2B (Homo sapiens, UniProt P41595); experiment: as §1, with “HTR2B” for “SIGMAR1”
[3] = biological target: Sodium-dependent dopamine transporter (Homo sapiens, UniProt Q01959); experiment: as §1, with “SLC6A3” for “SIGMAR1”
D(3) dopamine receptor = D(3) dopamine receptor (Homo sapiens, UniProt P35462); experiment: as §1, with “DRD3” for “SIGMAR1”
[4] = biological target: Sigma intracellular receptor 2 (Homo sapiens, UniProt Q5BJF2); experiment: as §1, with “TMEM97” for “SIGMAR1”
Translocator protein = Translocator protein (Homo sapiens, UniProt P30536); experiment: as §1, with “TSPO” for “SIGMAR1”
[5] = biological target: T1, Muscarinic acetylcholine receptor M5 (Homo sapiens, UniProt P08912); experiment: as §1, with “CHRM5” for “SIGMAR1”
T1 sequence (P08912 whole entry): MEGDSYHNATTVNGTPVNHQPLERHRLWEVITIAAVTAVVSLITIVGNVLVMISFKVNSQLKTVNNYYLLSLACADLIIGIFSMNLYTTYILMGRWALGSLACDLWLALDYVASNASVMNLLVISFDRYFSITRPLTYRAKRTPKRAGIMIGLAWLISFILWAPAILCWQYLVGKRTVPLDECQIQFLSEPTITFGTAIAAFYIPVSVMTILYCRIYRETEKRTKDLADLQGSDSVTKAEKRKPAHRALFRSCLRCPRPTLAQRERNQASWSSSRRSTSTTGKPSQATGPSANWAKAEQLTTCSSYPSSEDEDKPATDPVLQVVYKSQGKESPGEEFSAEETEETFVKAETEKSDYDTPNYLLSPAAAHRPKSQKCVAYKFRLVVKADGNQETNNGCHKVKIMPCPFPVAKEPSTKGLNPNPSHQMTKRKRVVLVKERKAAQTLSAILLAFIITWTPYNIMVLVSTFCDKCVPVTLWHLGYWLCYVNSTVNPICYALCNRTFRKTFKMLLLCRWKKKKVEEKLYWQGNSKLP

[6] = biological target: 5-hydroxytryptamine receptor 2A (Homo sapiens, UniProt P28223); experiment: as §1, with “HTR2A” for “SIGMAR1”
[7] = biological target: T2, Alpha-1B adrenergic receptor (Homo sapiens, UniProt P35368); experiment: as §1, with “ADRA1B” for “SIGMAR1”
T2 sequence (P35368 whole entry): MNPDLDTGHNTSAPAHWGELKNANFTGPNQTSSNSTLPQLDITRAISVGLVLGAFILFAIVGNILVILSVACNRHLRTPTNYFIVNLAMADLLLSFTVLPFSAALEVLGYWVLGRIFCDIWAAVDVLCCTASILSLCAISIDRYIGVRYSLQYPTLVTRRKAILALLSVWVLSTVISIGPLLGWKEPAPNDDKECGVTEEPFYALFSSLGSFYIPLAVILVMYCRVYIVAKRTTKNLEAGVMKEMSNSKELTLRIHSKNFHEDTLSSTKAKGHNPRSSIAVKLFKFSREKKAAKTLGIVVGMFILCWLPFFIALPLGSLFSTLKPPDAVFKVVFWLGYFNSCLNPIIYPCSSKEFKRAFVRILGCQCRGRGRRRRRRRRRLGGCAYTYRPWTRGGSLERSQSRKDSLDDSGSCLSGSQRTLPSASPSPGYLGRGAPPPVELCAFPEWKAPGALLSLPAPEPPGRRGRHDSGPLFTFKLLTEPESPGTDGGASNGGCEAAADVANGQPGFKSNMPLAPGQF

[8] = biological target: 5-hydroxytryptamine receptor 1D (Homo sapiens, UniProt P28221); experiment: as §1, with “HTR1D” for “SIGMAR1”
[9] = biological target: T3, Alpha-2A adrenergic receptor (Homo sapiens, UniProt P08913); experiment: as §1, with “ADRA2A” for “SIGMAR1”
T3 sequence (P08913 whole entry): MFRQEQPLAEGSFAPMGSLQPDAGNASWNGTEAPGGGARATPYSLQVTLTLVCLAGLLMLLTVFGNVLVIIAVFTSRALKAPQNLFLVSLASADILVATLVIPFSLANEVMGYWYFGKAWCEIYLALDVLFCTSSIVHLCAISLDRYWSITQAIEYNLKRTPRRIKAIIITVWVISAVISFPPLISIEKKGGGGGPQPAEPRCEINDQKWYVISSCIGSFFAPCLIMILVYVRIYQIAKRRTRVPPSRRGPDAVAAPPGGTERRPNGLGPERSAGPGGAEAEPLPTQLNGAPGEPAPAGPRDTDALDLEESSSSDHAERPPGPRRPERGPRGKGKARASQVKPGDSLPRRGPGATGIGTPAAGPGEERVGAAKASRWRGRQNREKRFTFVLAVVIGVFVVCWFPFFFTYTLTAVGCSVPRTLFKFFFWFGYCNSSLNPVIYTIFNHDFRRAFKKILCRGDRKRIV

[10] = biological target: 5-hydroxytryptamine receptor 7 (Homo sapiens, UniProt P34969); experiment: as §1, with “HTR7” for “SIGMAR1”
D(4) dopamine receptor = biological target: T4, D(4) dopamine receptor (Homo sapiens, UniProt P21917); experiment: as §1, with “DRD4” for “SIGMAR1”
T4 sequence (P21917 whole entry): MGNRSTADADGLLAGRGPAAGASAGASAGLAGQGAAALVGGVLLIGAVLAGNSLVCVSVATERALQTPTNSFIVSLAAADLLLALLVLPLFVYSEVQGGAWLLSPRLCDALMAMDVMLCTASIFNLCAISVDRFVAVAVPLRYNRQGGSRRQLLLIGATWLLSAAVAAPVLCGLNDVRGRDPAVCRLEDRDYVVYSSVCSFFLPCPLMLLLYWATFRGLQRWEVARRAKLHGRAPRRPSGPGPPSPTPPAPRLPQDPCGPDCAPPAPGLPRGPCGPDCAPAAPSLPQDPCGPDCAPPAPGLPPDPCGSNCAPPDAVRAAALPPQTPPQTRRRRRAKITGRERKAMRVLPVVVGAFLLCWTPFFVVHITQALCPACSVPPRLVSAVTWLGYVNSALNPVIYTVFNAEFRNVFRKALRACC

[11] = biological target: 5-hydroxytryptamine receptor 5A (Homo sapiens, UniProt P47898); experiment: as §1, with “HTR5A” for “SIGMAR1”
Mu-type opioid receptor = Mu-type opioid receptor (Homo sapiens, UniProt P35372); experiment: as §1, with “OPRM1” for “SIGMAR1”
[12] = biological target: Sodium-dependent noradrenaline transporter (Homo sapiens, UniProt P23975); experiment: as §1, with “SLC6A2” for “SIGMAR1”
Chain of Sodium-dependent noradrenaline transporter (P23975 whole entry): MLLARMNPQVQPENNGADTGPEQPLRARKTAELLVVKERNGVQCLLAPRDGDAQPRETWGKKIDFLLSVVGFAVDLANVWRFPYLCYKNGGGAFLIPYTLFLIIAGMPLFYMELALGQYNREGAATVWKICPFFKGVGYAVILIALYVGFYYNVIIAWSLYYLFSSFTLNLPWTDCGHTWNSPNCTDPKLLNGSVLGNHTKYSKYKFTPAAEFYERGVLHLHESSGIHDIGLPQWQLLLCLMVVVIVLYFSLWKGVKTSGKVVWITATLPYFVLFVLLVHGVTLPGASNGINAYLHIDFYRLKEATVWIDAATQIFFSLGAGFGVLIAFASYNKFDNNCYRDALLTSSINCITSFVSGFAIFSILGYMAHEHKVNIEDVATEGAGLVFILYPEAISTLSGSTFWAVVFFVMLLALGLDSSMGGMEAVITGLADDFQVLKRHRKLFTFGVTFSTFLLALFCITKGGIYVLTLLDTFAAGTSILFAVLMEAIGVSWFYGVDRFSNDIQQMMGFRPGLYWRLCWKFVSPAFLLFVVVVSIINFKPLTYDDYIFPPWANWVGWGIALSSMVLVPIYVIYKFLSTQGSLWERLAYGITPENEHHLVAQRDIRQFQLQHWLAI

Chain of Translocator protein (P30536 whole entry): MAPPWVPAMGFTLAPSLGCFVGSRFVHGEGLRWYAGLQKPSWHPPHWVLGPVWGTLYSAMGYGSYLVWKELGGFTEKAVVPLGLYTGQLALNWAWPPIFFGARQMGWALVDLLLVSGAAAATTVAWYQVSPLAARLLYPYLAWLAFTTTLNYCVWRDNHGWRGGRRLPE
Chain of Sigma intracellular receptor 2 (Q5BJF2 whole entry): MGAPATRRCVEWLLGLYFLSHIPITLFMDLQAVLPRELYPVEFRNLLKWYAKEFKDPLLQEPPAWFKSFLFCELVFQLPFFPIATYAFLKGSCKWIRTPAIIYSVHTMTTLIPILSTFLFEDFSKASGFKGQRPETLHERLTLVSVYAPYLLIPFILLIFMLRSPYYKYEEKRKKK
Chain of Sigma non-opioid intracellular receptor 1 (Q99720 whole entry): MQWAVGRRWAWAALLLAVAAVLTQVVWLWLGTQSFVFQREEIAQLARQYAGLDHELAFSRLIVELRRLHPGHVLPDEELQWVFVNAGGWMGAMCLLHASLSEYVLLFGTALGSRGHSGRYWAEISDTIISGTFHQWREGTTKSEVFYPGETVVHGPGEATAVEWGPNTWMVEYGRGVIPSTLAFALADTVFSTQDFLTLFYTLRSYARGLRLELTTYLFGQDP
Chain of D(3) dopamine receptor (P35462 whole entry): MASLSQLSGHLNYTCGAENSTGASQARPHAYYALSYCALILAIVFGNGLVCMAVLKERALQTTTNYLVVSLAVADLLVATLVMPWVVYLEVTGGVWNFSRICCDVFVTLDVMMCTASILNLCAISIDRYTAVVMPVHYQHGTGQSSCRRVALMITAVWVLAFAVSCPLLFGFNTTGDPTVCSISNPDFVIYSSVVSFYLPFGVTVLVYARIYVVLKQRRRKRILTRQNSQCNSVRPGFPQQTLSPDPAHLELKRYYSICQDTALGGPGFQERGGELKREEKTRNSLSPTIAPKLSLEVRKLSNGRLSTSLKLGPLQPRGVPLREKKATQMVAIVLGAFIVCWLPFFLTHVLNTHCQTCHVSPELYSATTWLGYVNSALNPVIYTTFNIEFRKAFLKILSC
Chain of 5-hydroxytryptamine receptor 2B (P41595 whole entry): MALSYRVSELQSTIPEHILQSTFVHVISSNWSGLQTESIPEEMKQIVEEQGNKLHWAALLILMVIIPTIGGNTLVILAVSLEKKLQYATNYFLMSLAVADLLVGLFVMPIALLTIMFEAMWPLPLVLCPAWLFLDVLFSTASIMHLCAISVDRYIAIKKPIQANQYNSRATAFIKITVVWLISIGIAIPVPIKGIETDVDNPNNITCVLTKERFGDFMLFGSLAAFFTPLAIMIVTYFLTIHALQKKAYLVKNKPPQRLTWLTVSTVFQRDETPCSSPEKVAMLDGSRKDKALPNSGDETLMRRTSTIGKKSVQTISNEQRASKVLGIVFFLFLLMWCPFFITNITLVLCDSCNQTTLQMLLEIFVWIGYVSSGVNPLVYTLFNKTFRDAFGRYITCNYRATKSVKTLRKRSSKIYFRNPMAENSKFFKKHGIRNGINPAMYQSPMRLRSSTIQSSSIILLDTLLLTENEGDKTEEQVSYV
Chain of Sodium-dependent dopamine transporter (Q01959 whole entry): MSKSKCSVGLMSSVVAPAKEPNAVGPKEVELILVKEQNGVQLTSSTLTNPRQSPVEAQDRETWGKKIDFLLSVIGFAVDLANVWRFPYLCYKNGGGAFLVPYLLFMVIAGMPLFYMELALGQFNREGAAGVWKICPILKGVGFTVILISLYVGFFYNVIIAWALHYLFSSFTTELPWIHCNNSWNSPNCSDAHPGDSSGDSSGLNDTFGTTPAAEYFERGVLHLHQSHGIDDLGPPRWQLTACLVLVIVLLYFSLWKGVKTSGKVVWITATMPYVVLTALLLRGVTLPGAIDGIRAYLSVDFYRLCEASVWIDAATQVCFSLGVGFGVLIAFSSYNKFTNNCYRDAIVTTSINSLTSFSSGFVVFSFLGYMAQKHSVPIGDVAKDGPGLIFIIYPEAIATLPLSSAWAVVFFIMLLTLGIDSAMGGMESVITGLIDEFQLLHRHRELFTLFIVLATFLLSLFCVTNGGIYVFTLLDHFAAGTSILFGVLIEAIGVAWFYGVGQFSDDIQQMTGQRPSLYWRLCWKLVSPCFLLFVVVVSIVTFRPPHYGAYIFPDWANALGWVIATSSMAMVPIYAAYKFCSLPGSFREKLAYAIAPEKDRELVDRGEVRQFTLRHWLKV
Chain of 5-hydroxytryptamine receptor 2A (P28223 whole entry): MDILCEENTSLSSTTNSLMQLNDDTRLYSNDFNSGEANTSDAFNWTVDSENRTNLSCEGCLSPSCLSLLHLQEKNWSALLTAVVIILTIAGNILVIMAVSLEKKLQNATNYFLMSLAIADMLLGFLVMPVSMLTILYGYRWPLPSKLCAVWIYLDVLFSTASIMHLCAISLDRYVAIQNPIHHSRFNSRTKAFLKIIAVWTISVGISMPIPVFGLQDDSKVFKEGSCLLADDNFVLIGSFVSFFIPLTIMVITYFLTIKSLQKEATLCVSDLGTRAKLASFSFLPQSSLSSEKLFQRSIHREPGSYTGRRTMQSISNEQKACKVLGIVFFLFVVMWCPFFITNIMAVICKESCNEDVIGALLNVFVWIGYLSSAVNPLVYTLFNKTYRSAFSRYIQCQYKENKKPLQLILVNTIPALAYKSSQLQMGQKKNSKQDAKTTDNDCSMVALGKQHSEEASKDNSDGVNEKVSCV
Chain of 5-hydroxytryptamine receptor 5A (P47898 whole entry): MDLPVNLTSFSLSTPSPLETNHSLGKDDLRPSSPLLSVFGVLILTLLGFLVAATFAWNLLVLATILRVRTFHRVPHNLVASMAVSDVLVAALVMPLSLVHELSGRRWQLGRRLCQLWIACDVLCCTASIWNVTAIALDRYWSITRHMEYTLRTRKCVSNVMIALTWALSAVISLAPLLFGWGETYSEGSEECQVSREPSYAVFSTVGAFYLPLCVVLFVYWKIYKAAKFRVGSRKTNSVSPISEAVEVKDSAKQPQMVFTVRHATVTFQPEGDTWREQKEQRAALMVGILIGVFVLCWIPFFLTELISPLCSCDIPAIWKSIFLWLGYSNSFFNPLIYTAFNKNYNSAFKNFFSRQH
Chain of 5-hydroxytryptamine receptor 7 (P34969 whole entry): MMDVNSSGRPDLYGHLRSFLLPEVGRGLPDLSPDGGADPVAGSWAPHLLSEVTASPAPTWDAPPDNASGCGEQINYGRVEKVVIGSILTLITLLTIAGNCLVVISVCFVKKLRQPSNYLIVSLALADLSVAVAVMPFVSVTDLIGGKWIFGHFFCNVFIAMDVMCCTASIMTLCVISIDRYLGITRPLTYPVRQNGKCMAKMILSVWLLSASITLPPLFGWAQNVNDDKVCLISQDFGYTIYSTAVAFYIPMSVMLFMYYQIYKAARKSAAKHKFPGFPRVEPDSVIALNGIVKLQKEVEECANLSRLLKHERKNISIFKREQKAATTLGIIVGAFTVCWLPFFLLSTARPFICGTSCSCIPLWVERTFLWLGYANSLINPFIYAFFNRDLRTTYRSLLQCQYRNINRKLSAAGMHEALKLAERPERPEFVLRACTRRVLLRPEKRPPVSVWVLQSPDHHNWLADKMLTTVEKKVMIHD
Chain of 5-hydroxytryptamine receptor 1D (P28221 whole entry): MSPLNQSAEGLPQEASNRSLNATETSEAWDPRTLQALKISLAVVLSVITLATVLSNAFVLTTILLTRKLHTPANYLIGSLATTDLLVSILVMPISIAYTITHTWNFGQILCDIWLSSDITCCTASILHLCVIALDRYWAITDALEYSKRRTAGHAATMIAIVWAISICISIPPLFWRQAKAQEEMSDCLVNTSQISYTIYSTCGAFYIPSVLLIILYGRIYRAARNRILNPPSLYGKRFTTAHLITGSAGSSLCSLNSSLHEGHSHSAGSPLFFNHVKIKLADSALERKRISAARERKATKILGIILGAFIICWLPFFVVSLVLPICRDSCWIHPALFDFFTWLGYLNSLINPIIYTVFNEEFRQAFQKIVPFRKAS
Chain of Mu-type opioid receptor (P35372 whole entry): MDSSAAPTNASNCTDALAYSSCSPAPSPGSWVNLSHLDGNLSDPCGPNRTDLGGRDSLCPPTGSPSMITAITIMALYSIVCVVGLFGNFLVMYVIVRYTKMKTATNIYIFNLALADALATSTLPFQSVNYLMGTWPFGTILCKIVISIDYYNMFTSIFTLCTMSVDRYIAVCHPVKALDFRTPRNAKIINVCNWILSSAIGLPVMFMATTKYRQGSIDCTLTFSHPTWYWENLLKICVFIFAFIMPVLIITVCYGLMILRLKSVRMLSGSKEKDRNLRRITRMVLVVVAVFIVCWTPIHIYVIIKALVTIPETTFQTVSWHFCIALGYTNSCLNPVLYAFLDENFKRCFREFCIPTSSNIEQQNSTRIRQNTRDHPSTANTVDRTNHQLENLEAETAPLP

## Cc1c(C(=O)NC2CCCCC2)sc2nc3ccc(N)cc3n12
[1]
  Ki: 0.908 µM
[2]
  Ki: 0.656 µM

## FC(F)(F)c1c(N2CCC(c3ccccc3)CC2)ccn2c(CC3CC3)nnc12
[3]
  Ki: 4.31 µM
[1]
  Ki: 0.983 µM

## COc1ccc(Br)cc1S(=O)(=O)NC(=O)/C=C/c1ccccc1Cc1ccc2ccccc2c1
D(3) dopamine receptor
  Ki: 0.582 µM

## CCCCCCCCCCCCC/C=C/[C@@H](O)[C@@H](N)COP(=O)(O)O
[4]
  Ki: 0.672 µM
[1]
  Ki: 5.98 µM
Translocator protein
  Ki: 3.12 µM

## Cc1csc(NC(=O)c2cc(F)cc(Oc3cncnc3)c2)n1
[3]
  Ki: 2.99 µM
[5]
  Ki: > 10 µM
D(3) dopamine receptor
  Ki: 2.14 µM

## CCCCC#Cc1nc(NC)c2ncn([C@@H]3O[C@H](CO)[C@@H](O)[C@H]3O)c2n1
[3]
  Ki: > 10 µM
[6]
  Ki: 7.87 µM

## Cc1nc(-c2ccc(C(F)(F)F)cc2)sc1COc1ccc([C@H](CC(=O)O)c2ccon2)cc1
[3]
  Ki: 4.49 µM
[5]
  Ki: 6.85 µM
[7]
  Ki: > 10 µM

## N#Cc1c(O)nc(SCc2cccc(F)c2F)nc1C1CC1
[5]
  Ki: 6.56 µM

## COc1cc2c(CCNC(C)=O)c[nH]c2cc1Cl
[2]
  Ki: 0.844 µM
[7]
  Ki: > 10 µM

## CC(C)Oc1ccccc1C(=O)Nc1ccccc1C(=O)Nc1cccc(S(=O)(=O)C(F)(F)F)c1
[6]
  Ki: 0.983 µM
Translocator protein
  Ki: 0.111 µM

## O=C(O)CC1CCC2(CC1)CCN(c1cc(OC(F)(F)F)ccc1Cl)CC2
D(3) dopamine receptor
  Ki: 0.591 µM

## CCCCN(CC)c1nc(C)nc2c1c(C)cn2-c1c(C)cc(C)cc1C
[4]
  Ki: 2.12 µM
Translocator protein
  Ki: 1.88 µM

## COC1CCN(c2cccc(-c3cc(NC(C)=O)nc(-n4nc(C)cc4C)n3)n2)CC1
[1]
  Ki: 0.474 µM
Translocator protein
  Ki: 0.969 µM

## COc1ccc(/C=C/CCCCOc2ccc(C(=O)c3cccc(C(=O)O)c3)cc2CCC(=O)O)cc1
D(3) dopamine receptor
  Ki: 1.96 µM

## CC1(C)SSC(C)(C)[C@@H](NC(=O)[C@@H](N)Cc2ccc(O)cc2)C(=O)NCC(=O)N[C@@H](Cc2ccccc2)C(=O)N[C@H]1C(=O)O
Translocator protein
  Ki: 1.63 µM

## O=C(Cc1ccccc1)Nc1nc2ccc(Cl)cc2c2nc(-c3ccco3)nn12
[8]
  Ki: > 10 µM

## CC(C)NCC(O)COc1ccc(CCOCC2CC2)cc1 (stereo not given) [BETAXOLOL HYDROCHLORIDE]
[4]
  Ki: 1.65 µM
[1]
  Ki: 0.248 µM

## COc1ccccc1CN[C@H]1C2CCN(CC2)[C@H]1C(c1ccccc1)c1ccccc1 [CP-96345]
[5]
  Ki: 4.94 µM
[4]
  Ki: 0.906 µM

## CC1=C2C[C@H]3[C@@H](CC=C4C[C@@H](O)CC[C@@]43C)[C@@H]2CC[C@]12O[C@@H]1C[C@H](C)CN[C@H]1[C@H]2C [CYCLOPAMINE]
[3]
  Ki: 3.42 µM
[4]
  Ki: 0.599 µM

## Cc1c(F)cccc1NC(=O)Nc1ccc(Cl)c(S(=O)(=O)[C@H]2CCCNC2)c1O [DANIRIXIN]
[9]
  Ki: > 10 µM

## CN1C(=O)[C@@H](NC(=O)c2cc3ccccc3[nH]2)N=C(c2ccccc2)c2ccccc21 [DEVAZEPIDE]
Translocator protein
  Ki: 3.33 µM

## CCc1cc(C(C)=O)c(O)cc1OCCCCCC(C)(C)c1nn[nH]n1 [LY-255283]
[1]
  Ki: 5.78 µM
[2]
  Ki: 2.68 µM

## O=C1O[C@]2(CC[C@H](C(=O)Nc3ccn(-c4ccccc4F)n3)CC2)c2cnccc21 [MK-0557]
D(3) dopamine receptor
  Ki: 3.57 µM

## CO[C@@H]1COCC[C@@H]1N[C@@H]1CC[C@@](C(=O)N2CCc3ncc(C(F)(F)F)cc3C2)(C(C)C)C1 [MK-0812]
[4]
  Ki: 1.87 µM
[1]
  Ki: 0.83 µM

## COc1ccc(CNC(=O)c2cc(-c3cncc(Cl)c3)cnc2-c2ccccn2)nc1OC [MK-1064]
[6]
  Ki: 4.59 µM

## CNC[C@H](O)c1cccc(O)c1 [PHENYLEPHRINE]
[10]
  Ki: 1.11 µM

## CC(C)NCC(O)COc1cccc2[nH]ccc12 (stereo not given) [PINDOLOL]
[4]
  Ki: 3.32 µM
D(4) dopamine receptor
  Ki: 1.66 µM
[11]
  Ki: 7.05 µM

## COc1cc2nc(N3CCN(C(=O)c4ccco4)CC3)nc(N)c2cc1OC [PRAZOSIN HYDROCHLORIDE]
Mu-type opioid receptor
  Ki: 1.79 µM
[1]
  Ki: 2.97 µM
[11]
  Ki: 0.8 µM
Translocator protein
  Ki: > 10 µM

## NC(=O)[C@@H]1CCCN1C(=O)[C@H](Cc1cnc[nH]1)NC(=O)[C@@H]1CCC(=O)N1 [PROTIRELIN]
Translocator protein
  Ki: > 10 µM

## CCC(=O)NCC[C@@H]1CCc2ccc3c(c21)CCO3 [RAMELTEON]
[1]
  Ki: 8.85 µM

## Cc1cc(C)c(N)c(C#Cc2cccc(F)c2)n1 [RASEGLURANT]
[12]
  Ki: 0.345 µM

## COC(=O)[C@H]1[C@H]2C[C@H]3c4[nH]c5ccccc5c4CCN3C[C@H]2CC[C@@H]1O [RAUWOLSCINE HYDROCHLORIDE]
[1]
  Ki: 2.78 µM
[10]
  Ki: 0.333 µM

## CCCn1c(=O)c2[nH]c(C34CC5CC(CC3C5)C4)nc2n(CCC)c1=O [ROLOFYLLINE]
[3]
  Ki: 3.36 µM

## CCCSc1nc(N[C@@H]2C[C@H]2c2ccc(F)c(F)c2)c2nnn([C@@H]3C[C@H](OCCO)[C@@H](O)[C@H]3O)c2n1 [TICAGRELOR]
[3]
  Ki: 0.519 µM
[4]
  Ki: 1.3 µM

## Nc1nc(NCCc2ccc(O)cc2)nc2nc(-c3ccco3)nn12 [ZM-241385]
[4]
  Ki: 1.07 µM
